Test results reported in article PMC6036575, “Reincarnation of Bacteriocins From the Lactobacillus Pangenomic Graveyard” (Frontiers in Microbiology, 2018).
No end group written: not given here.

Legend:
P. clausenii DSM 14800 = experiment: Well diffusion assay, spectrum of bacteriocin activity; type: cell-based; settings: 50 μl filtered supernatant of E. coli Tuner (DE3) transformants encoding the pediocin PA-1 leader, 7 mm wells, triplicate
Experimental: (§1) Bacteriocin activity was determined using well diffusion assays (WDAs). For Tuner^TM (DE3) E. coli transformants both the cell supernatant and the cell lysates were analyzed for antimicrobial activity, whilst only the supernatants were analyzed for L. paracasei NFBC338 cells. Supernatant was isolated by centrifugation of the liquid cultures at 4000 RCF for 15 min, these supernatants were then filtered using 0.20 μm membrane filters. For cell lysates, cell pellets were resuspended in 5 ml of phosphate-buffered saline (PBS), cells were lysed by sonication using a MSE Soniprep 150 (MSE, London, UK). Lysates were subsequently centrifuged at 4000 RCF for 15 min and the resulting supernatants were filtered using 0.20 μm membrane filters. For the indicator plates, 50 μl of an overnight culture of the indicator strain was added to the appropriate media containing 1% agar. Plates were cooled and 7 mm wells were bored in the agar. 50 μl of the cell supernatants/lysates being tested were added to each well and plates were refrigerated for 2 h prior to incubation under the appropriate conditions. WDAs were carried out in triplicate for each bacteriocin.
(§2) E. coli Tuner^TM (DE3) cells transformed with the newly constructed plasmids were grown in LB supplemented with glucose to maintain a low-copy number and bacteriocin expression was induced by co-incubation of the clones with 50 μM IPTG for 3 h. WDAs were used to identify bacteriocin activity from the bacterial supernatants and cell lysates. Bacteriocins were exclusively found in the bacterial supernatant. Antimicrobial activity was lower in cases where the native leader of the bacteriocin sequence was used; with only four of the nine strains displaying zones of inhibition against a sensitive indicator (pediocin 20336a has an identical leader to pediocin PA-1). For expression in L. paracasei NFBC338, cells were transformed by electroporation with the bacteriocin-containing pNZ44 vectors. Positive transformants were grown overnight and the neutralized cell free supernatant was used to identify bacteriocin production in WDAs.
(§3) The spectrum of activity was determined using WDAs against 32 indicator strains for bacteriocins produced by the E. coli transformants encoding the pediocin leader (Table 2). Despite being of the same class of bacteriocins, these novel antimicrobials display a varying spectrum of activity. […] Many of these bacteriocins, however, can inhibit a wide range of Gram positive bacteria including potential pathogens such as Enterococcus faecalis. As with most class IIa bacteriocins, these also display potent anti-listerial activity.

L. apodemi DSM 16654 = experiment: as above; type: cell-based; settings: 50 μl filtered supernatant of E. coli Tuner (DE3) transformants encoding the pediocin PA-1 leader, 7 mm wells, triplicate
Experimental: as §1, §2, §3

[1] = tested on: Li. monocytogenes DPC 6894; experiment: as above; type: cell-based; settings: 50 μl filtered supernatant of E. coli Tuner (DE3) transformants encoding the pediocin PA-1 leader, 7 mm wells, triplicate
Experimental: as §1, §2, §3

E.mundtii LMG 10748 = experiment: as above; type: cell-based; settings: 50 μl filtered supernatant of E. coli Tuner (DE3) transformants encoding the pediocin PA-1 leader, 7 mm wells, triplicate
Experimental: as §1, §2, §3

L. nodensis DSM 16982 = experiment: as above; type: cell-based; settings: 50 μl filtered supernatant of E. coli Tuner (DE3) transformants encoding the pediocin PA-1 leader, 7 mm wells, triplicate
Experimental: as §1, §2, §3

L. mali DSM 20444 = experiment: as above; type: cell-based; settings: 50 μl filtered supernatant of E. coli Tuner (DE3) transformants encoding the pediocin PA-1 leader, 7 mm wells, triplicate
Experimental: as §1, §2, §3

[2] = tested on: P. ethanolidurans DSM 22301; experiment: as above; type: cell-based; settings: 50 μl filtered supernatant of E. coli Tuner (DE3) transformants encoding the pediocin PA-1 leader, 7 mm wells, triplicate
Experimental: as §1, §2, §3

[3] = tested on: E. saccharolyticus DPC 4902; experiment: as above; type: cell-based; settings: 50 μl filtered supernatant of E. coli Tuner (DE3) transformants encoding the pediocin PA-1 leader, 7 mm wells, triplicate
Experimental: as §1, §2, §3

[4] = tested on: Pediococcus stilesii DSM 18001; experiment: as above; type: cell-based; settings: 50 μl filtered supernatant of E. coli Tuner (DE3) transformants encoding the pediocin PA-1 leader, 7 mm wells, triplicate
Experimental: as §1, §2, §3

[5] = tested on: Li. monocytogenes WSL 1416; experiment: as above; type: cell-based; settings: 50 μl filtered supernatant of E. coli Tuner (DE3) transformants encoding the pediocin PA-1 leader, 7 mm wells, triplicate
Experimental: as §1, §2, §3

L. amylophilus DSM 20509 = experiment: as above; type: cell-based; settings: 50 μl filtered supernatant of E. coli Tuner (DE3) transformants encoding the pediocin PA-1 leader, 7 mm wells, triplicate
Experimental: as §1, §2, §3

[6] = tested on: L. paralimentarius DSM 13961; experiment: as above; type: cell-based; settings: 50 μl filtered supernatant of E. coli Tuner (DE3) transformants encoding the pediocin PA-1 leader, 7 mm wells, triplicate
Experimental: as §1, §2, §3

[7] = tested on: Listeria innocua DPC 3572; experiment: as above; type: cell-based; settings: 50 μl filtered supernatant of E. coli Tuner (DE3) transformants encoding the pediocin PA-1 leader, 7 mm wells, triplicate
Experimental: as §1, §2, §3

L. plantarum DSM 13273 = experiment: as above; type: cell-based; settings: 50 μl filtered supernatant of E. coli Tuner (DE3) transformants encoding the pediocin PA-1 leader, 7 mm wells, triplicate
Experimental: as §1, §2, §3

[8] = tested on: Enterococcus faecalis LMG 7397; experiment: as above; type: cell-based; settings: 50 μl filtered supernatant of E. coli Tuner (DE3) transformants encoding the pediocin PA-1 leader, 7 mm wells, 1% agar, triplicate
Experimental: as §1, §2, §3

L. crustorum JCM 15951 = experiment: as above; type: cell-based; settings: 50 μl filtered supernatant of E. coli Tuner (DE3) transformants encoding the pediocin PA-1 leader, 7 mm wells, triplicate
Experimental: as §1, §2, §3

[9] = tested on: Li. monocytogenes DPC 6893; experiment: as above; type: cell-based; settings: 50 μl filtered supernatant of E. coli Tuner (DE3) transformants encoding the pediocin PA-1 leader, 7 mm wells, triplicate
Experimental: as §1, §2, §3

L. kimchicus JCM 15530 = experiment: as above; type: cell-based; settings: 50 μl filtered supernatant of E. coli Tuner (DE3) transformants encoding the pediocin PA-1 leader, 7 mm wells, triplicate
Experimental: as §1, §2, §3

32 indicator strains = experiment: Well diffusion assays against the panel of 32 indicator strains; type: cell-based; settings: for antimicrobial activity / spectrum, in words: crude supernatant from the E. coli heterologous host, pediocin PA-1 leader; for Total no. of strains inhibited: of 32 indicator strains, supernatant of E. coli transformants encoding the pediocin leader
Experimental: as §1, §2, §3

L. innocua DPC3572 = experiment: Bacteriocin activity (BU/ml), dilution series in well diffusion assay; type: cell-based, Listeria innocua; settings: inverse of the highest dilution of bacterial supernatant showing activity in a well diffusion assay
Experimental: as §1, §2

L. amylovorus DSM 20531 = experiment: Well diffusion assay, spectrum of bacteriocin activity; type: cell-based; settings: 50 μl filtered supernatant of E. coli Tuner (DE3) transformants encoding the pediocin PA-1 leader, 7 mm wells, triplicate
Experimental: as §1, §2, §3

[10] = produced by E. coli Tuner (DE3)
[11] = produced by L. paracasei NFBC338, neutralized cell free supernatant

Substance | radius of the zone of inhibition (P. clausenii DSM 14800) [millimeters] | radius of the zone of inhibition (L. apodemi DSM 16654) [millimeters] | radius of the zone of inhibition [1] [millimeters] | radius of the zone of inhibition (E.mundtii LMG 10748) [millimeters] | radius of the zone of inhibition (L. nodensis DSM 16982) [millimeters] | radius of the zone of inhibition (L. mali DSM 20444) [millimeters] | radius of the zone of inhibition [2] [millimeters] | radius of the zone of inhibition [3] [millimeters] | radius of the zone of inhibition [4] [millimeters] | radius of the zone of inhibition [5] [millimeters] | radius of the zone of inhibition (L. amylophilus DSM 20509) [millimeters] | radius of the zone of inhibition [6] [millimeters] | radius of the zone of inhibition [7] [millimeters] | radius of the zone of inhibition (L. plantarum DSM 13273) [millimeters] | radius of the zone of inhibition [8] [millimeters] | radius of the zone of inhibition (L. crustorum JCM 15951) [millimeters] | radius of the zone of inhibition [9] [millimeters] | Total no. of strains inhibited (32 indicator strains) | Bacteriocin Activity (BU/ml) vs. L. innocua DPC3572 (L. innocua DPC3572; [10]) | Bacteriocin Activity (BU/ml) vs. L. innocua DPC3572 (L. innocua DPC3572; [11]) | other results
–KYYGNGLYCG-KHSCSVDWGKATTCIINNGAMAWATGGHQGTHKC—— (bicyclic or more) [Pediocin 20336a (Ped20336), novel pediocin-like class IIa bacteriocin encoded by P. pentosaceus DSM 20336, heterologously expressed] | 0.67 ± 0.47 | 3.67 ± 0.47 | 4.33 ± 0.47 | 4.67 ± 0.47 | 1.67 ± 0.47 | 6.33 ± 0.47 | 5.67 ± 0.47 | 5.67 ± 0.47 | 1 ± 0 | 3.33 ± 0.94 | 0.33 ± 0.47 | 1 ± 0.47 | 7.33 ± 0.47 | 1.33 ± 0.47 | 4 ± 0 | 1 ± 0 | 2.67 ± 0.47 | 18 | + (+ = 0 – 160 BU/ml) | + (+ = 0 – 160 BU/ml) | radius of the zone of inhibition (L. kimchicus JCM 15530): 0.33 ± 0.47 millimeters; antimicrobial activity / spectrum, in words (32 indicator strains): inhibited the growth of a larger number of the indicators tested than pediocin PA-1
–KYYGNGVSCTKKHGCKVNWGQAFTCSVNRFANFGH–G————-NC— (bicyclic or more) [Hordeiocin (Hrd), novel pediocin-like class IIa bacteriocin encoded by L. hordei DSM 19519, heterologously expressed] | 2 ± 0 | 2.67 ± 0.47 | 4 ± 0 | 2.67 ± 0.47 | 3.67 ± 0.47 | 4.33 ± 0.47 | 3.67 ± 0.47 | 3.67 ± 0.47 | 1 ± 0 | 2 ± 0.82 | 2.50 ± 0.41 | 1 ± 0.47 | 4.67 ± 0.47 | 1.33 ± 0.47 | 2.67 ± 0.47 | 1 ± 0 | 2 ± 0 | 18 | +++ (+++ = 5120 – 10240 BU/ml) | ++ (++ = 320 – 2560 BU/ml) | radius of the zone of inhibition (L. kimchicus JCM 15530): 3 ± 0 millimeters; antimicrobial activity / spectrum, in words (32 indicator strains): inhibited the growth of a larger number of the indicators tested than pediocin PA-1
–KYYGNGVTCG-KHSCSVDWGKATTCIINNGAMAWATGGHQGNHKC—– (bicyclic or more) (KYYGNGVTCGKHSCSVDWGKATTCIINNGAMAWATGGHQGNHKC; not fully specified (bridges); cysteine pairing not given here; UniProt P29430 19-62, looked up) [Pediocin PA-1 (PedA), original class IIa bacteriocin of P. acidilactici LMG 2351, used as a control; heterologously expressed, reference compound] |  | 3.33 ± 0.47 | 5 ± 0 | 5 ± 0 |  | 7.67 ± 0.47 | 5.67 ± 0.47 | 6 ± 0 | 1 ± 0 | 3.33 ± 0.94 |  | 0.67 ± 0.47 | 8 ± 0 | 0.33 ± 0.47 | 4.33 ± 0.47 | 0.33 ± 0.47 | 3 ± 0 | 14 | + (+ = 0 – 160 BU/ml) | ++ (++ = 320 – 2560 BU/ml) | 
–KYYGNGVYCG-KHKCRVDWGQAWGCSVNRWGAAVGTGGKATIGHC— (bicyclic or more) [Ruminicin (Rum), novel pediocin-like class IIa bacteriocin encoded by L. ruminis DSM 20403, heterologously expressed] | 1 ± 0 | 1.67 ± 0.47 | 2 ± 0 | 2 ± 0 |  | 2 ± 0 | 2.17 ± 0.24 | 2 ± 0 |  | 1 ± 0 | 1.33 ± 0.47 |  | 3.33 ± 0.47 |  | 1.17 ± 0.24 | 0.33 ± 0.47 | 1 ± 0 | 14 | +++ (+++ = 5120 – 10240 BU/ml) | +++ (+++ = 5120 – 10240 BU/ml) | radius of the zone of inhibition (L. amylovorus DSM 20531): 0.67 millimeters
